One experiment has as its target GLP-1 Receptor (Homo sapiens, UniProt P43220). Description: Functional assay, cAMP induction (luciferase reporter, HEK293) at GLP-1 receptor. It is filed as cell-based.
The target of another experiment is Glucagon Receptor (Homo sapiens, UniProt P47871). Description: cAMP inhibition: antagonism of glucagon-induced cAMP at glucagon receptor. It is filed as cell-based. Also on record: expressed in transfected cells; host or cells: HEK293.
The mark [1] stands for this setting: GLP-1 agonism EC50 (nM), Table 16.
Setting [2] is: Glucagon antagonism IC50 (nM, inhibit 0.2-0.8 nM glucagon), Table 16, combined results of three assays.
Where [3] appears, read: GLP-1 agonism EC50 (nM), Table 17.
Setting [4] is: Glucagon antagonism IC50 (nM, inhibit 0.2-0.8 nM glucagon), Table 17.

This note sets out measurements from US8980830B2 (priority 2007, dated 2015).

Values joined by “and” are separate entries in the source; they are usually repeats but may differ in a detail not shown here. Identical values can stand only once. Like-named read-outs stand apart in the source and are kept apart here. Bridge positions count the residues as written; N and C are the ends. Square brackets hold non-standard residues; d marks the D form. Ends that are not written are not given here. Peptide text beside a SMILES is read from it. * marks the point of attachment. X1 = CC(C)CCC[C@@H](C)[C@H]1CC[C@H]2[C@@H]3CC=C4C[C@@H](OC(=O)CCOCCOCCOCCOCCOCCOCCOCCOCCOCCOCCOCCOCCNC(=O)CSCCC(=O)*)CC[C@]4(C)[C@H]3CC[C@]12C; PhLac = O=C(O)[C@@H](O)Cc1ccccc1

Sequence of GLP-1 Receptor (P43220 24-463): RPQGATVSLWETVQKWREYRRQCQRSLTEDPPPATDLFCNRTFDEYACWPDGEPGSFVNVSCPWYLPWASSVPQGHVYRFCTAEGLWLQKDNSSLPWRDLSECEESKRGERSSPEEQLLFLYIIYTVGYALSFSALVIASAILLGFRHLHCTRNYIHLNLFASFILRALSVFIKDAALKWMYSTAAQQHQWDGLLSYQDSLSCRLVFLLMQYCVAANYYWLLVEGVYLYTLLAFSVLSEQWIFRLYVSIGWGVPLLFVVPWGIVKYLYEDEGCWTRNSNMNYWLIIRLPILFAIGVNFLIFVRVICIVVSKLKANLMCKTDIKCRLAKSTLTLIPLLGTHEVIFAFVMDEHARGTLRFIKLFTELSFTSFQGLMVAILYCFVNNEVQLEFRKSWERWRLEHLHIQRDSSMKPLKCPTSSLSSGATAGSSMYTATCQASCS
Sequence of Glucagon Receptor (P47871 26-477): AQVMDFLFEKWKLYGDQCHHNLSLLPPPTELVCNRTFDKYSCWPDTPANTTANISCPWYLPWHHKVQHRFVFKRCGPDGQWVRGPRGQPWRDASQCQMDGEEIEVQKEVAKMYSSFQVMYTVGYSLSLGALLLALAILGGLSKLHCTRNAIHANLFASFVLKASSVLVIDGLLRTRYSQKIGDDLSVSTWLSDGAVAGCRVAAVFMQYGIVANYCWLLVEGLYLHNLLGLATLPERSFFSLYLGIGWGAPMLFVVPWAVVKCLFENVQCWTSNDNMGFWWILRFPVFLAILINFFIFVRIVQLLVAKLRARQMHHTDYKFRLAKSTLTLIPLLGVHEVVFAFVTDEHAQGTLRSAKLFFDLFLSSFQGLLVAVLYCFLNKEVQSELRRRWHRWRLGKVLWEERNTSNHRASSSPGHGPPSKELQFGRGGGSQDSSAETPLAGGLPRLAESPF

Consider `CSCC[C@H](NC(=O)[C@H](CC(C)C)NC(=O)[C@H](Cc1c[nH]c2ccccc12)NC(=O)[C@H](CCC(N)=O)NC(=O)[C@@H](NC(=O)[C@H](Cc1ccccc1)NC(=O)[C@H](CC(=O)O)NC(=O)[C@@H]1CCCCNC(=O)CC[C@H](NC(=O)[C@H](CC(=O)O)NC(=O)[C@H](CC(C)C)NC(=O)[C@H](Cc2ccc(O)cc2)NC(=O)[C@H](CCCCN)NC(=O)[C@H](CO)NC(=O)[C@H](Cc2ccc(O)cc2)NC(=O)[C@H](CC(=O)O)NC(=O)[C@H](CO)NC(=O)[C@@H](NC(=O)[C@@H](O)Cc2ccccc2)[C@@H](C)O)C(=O)N[C@@H](CCCNC(=N)N)C(=O)N[C@@H](CCCNC(=N)N)C(=O)N[C@@H](C)C(=O)N1)C(C)C)C(=O)N[C@@H](CC(=O)O)C(=O)N[C@H](C(=O)NCC(=O)N1CCC[C@H]1C(=O)N[C@@H](CO)C(=O)N[C@@H](CO)C(=O)NCC(=O)N[C@@H](C)C(=O)N1CCC[C@H]1C(=O)N1CCC[C@H]1C(=O)N1CCC[C@H]1C(=O)N[C@@H](CO)C(=O)N[C@@H](CCCCNC(=O)CCSCC(=O)NCCOCCOCCOCCOCCOCCOCCOCCOCCOCCOCCOCCOCCC(=O)O[C@H]1CC[C@@]2(C)C(=CC[C@H]3[C@@H]4CC[C@H]([C@H](C)CCCC(C)C)[C@@]4(C)CC[C@@H]32)C1)C(N)=O)[C@@H](C)O` [K40-chol G(6-40), [PLA6, E16K20(lactam), D28, K40(COCH2CH2S-Chol)]G(6-40) amide] (H-[PhLac]TSDYSKYLDERRAKDFVQWLMDTGPSSGAPPPSK(X1)-NH2; lactam 11-15), for which the midpoint of the response on GLP-1 Receptor (GLP-1 agonism EC50 (nM), Table 23, standard deviation in ( )), the EC50, lay at 47 nM. This compound returned an IC50 against Glucagon Receptor (Glucagon antagonism IC50 (nM, inhibit 0.4 nM glucagon), Table 23, standard deviation in ( )) of 312 nM.

With `CSCC[C@H](NC(=O)[C@H](CC(C)C)NC(=O)[C@H](Cc1c[nH]c2ccccc12)NC(=O)[C@H](CCC(N)=O)NC(=O)[C@@H](NC(=O)[C@H](Cc1ccccc1)NC(=O)[C@H](CC(=O)O)NC(=O)[C@H](CCC(N)=O)NC(=O)[C@H](C)NC(=O)[C@H](CCCNC(=N)N)NC(=O)[C@H](CCCNC(=N)N)NC(=O)[C@@H]1CCC(=O)NCCCC[C@H](NC(=O)[C@H](CO)NC(=O)[C@H](Cc2ccc(O)cc2)NC(=O)[C@H](CC(=O)O)NC(=O)[C@H](CO)NC(=O)[C@@H](NC(=O)[C@@H](N)Cc2ccccc2)[C@@H](C)O)C(=O)N[C@@H](Cc2ccc(O)cc2)C(=O)N[C@@H](CC(C)C)C(=O)N[C@@H](CC(=O)O)C(=O)N1)C(C)C)C(=O)N[C@@H](CC(N)=O)C(=O)N[C@H](C(=O)NCC(=O)N1CCC[C@H]1C(=O)N[C@@H](CO)C(=O)N[C@@H](CO)C(=O)NCC(=O)N[C@@H](C)C(=O)N1CCC[C@H]1C(=O)N1CCC[C@H]1C(=O)N1CCC[C@H]1C(=O)N[C@@H](CO)C(N)=O)[C@@H](C)O` [D9, K12E16(Lactam)] (H-FTSDYSKYLDERRAQDFVQWLMNTGPSSGAPPPS-NH2; lactam 7-11; N-terminus assumed), the EC50 at GLP-1 Receptor (GLP-1 (nM), Table 13, GLP-1 agonist activity) worked out at 119 nM; on GLP-1 Receptor (GLP-1 EC50 (nM), Table 15) it was 18 nM. The IC50 on Glucagon Receptor (Table 13, glucagon antagonist activity, read-out: Glu) is 828 nM.

Turning to “[PLA6, E16K20(Lactam), C24(20 kDa), D28]G(6-29) ([PhLac]TSDYSKYLDERRAKDFVC(PEG 20 kDa)WLMDT-NH2; lactam 11-15)”, the concentration giving a half-maximal response (EC50) in the experiment with GLP-1 Receptor (read-out: GLP-1 agonism EC50, Table 21) lay within 450 to 1840 nM. The IC50 with Glucagon Receptor (read-out: Glucagon antagonism IC50(nM) (inhibit 0.2-0.8 nM glucagon)) lay in the range of 374 to 1460 nM.

For the compound `CSCC[C@H](NC(=O)[C@H](CC(C)C)NC(=O)[C@H](Cc1c[nH]c2ccccc12)NC(=O)[C@H](CCC(N)=O)NC(=O)[C@@H](NC(=O)[C@H](Cc1ccccc1)NC(=O)[C@H](CC(=O)O)NC(=O)[C@@H]1CCCCNC(=O)CC[C@H](NC(=O)[C@H](CC(=O)O)NC(=O)[C@H](CC(C)C)NC(=O)[C@H](Cc2ccc(O)cc2)NC(=O)[C@H](CCCCN)NC(=O)[C@H](CO)NC(=O)[C@H](Cc2ccc(O)cc2)NC(=O)[C@H](CCC(=O)O)NC(=O)[C@H](CO)NC(=O)[C@@H](NC(=O)[C@@H](N)Cc2ccccc2)[C@@H](C)O)C(=O)N[C@@H](CCCNC(=N)N)C(=O)N[C@@H](CCCNC(=N)N)C(=O)N[C@@H](C)C(=O)N1)C(C)C)C(=O)N[C@@H](CC(N)=O)C(=O)N[C@H](C(=O)NCC(=O)N1CCC[C@H]1C(=O)N[C@@H](CO)C(=O)N[C@@H](CO)C(=O)NCC(=O)N[C@@H](C)C(=O)N1CCC[C@H]1C(=O)N1CCC[C@H]1C(=O)N1CCC[C@H]1C(=O)N[C@@H](CO)C(N)=O)[C@@H](C)O` [E9, E16K20(lactam)], on GLP-1 Receptor (setting [1]), the EC50 was determined as 36.4 ± 3.5 nM. In addition, the IC50 on Glucagon Receptor (setting [2]) was 42 ± 3.6 nM.

At GLP-1 Receptor (setting [1]), `CSCC[C@H](NC(=O)[C@H](CC(C)C)NC(=O)[C@H](Cc1c[nH]c2ccccc12)NC(=O)[C@H](CCC(N)=O)NC(=O)[C@@H](NC(=O)[C@H](Cc1ccccc1)NC(=O)[C@H](CC(=O)O)NC(=O)[C@H](CCC(N)=O)NC(=O)[C@H](C)NC(=O)[C@H](CCCNC(=N)N)NC(=O)[C@H](CCCNC(=N)N)NC(=O)[C@H](CCC(=O)O)NC(=O)[C@H](CC(=O)O)NC(=O)[C@H](CC(C)C)NC(=O)[C@H](Cc1ccc(O)cc1)NC(=O)[C@H](CCCCN)NC(=O)[C@H](CO)NC(=O)[C@H](Cc1ccc(O)cc1)NC(=O)[C@H](CCC(=O)O)NC(=O)[C@H](CO)NC(=O)[C@@H](NC(=O)[C@@H](O)Cc1ccccc1)[C@@H](C)O)C(C)C)C(=O)N[C@@H](CC(N)=O)C(=O)N[C@H](C(=O)NCC(=O)N1CCC[C@H]1C(=O)N[C@@H](CO)C(=O)N[C@@H](CO)C(=O)NCC(=O)N[C@@H](C)C(=O)N1CCC[C@H]1C(=O)N1CCC[C@H]1C(=O)N1CCC[C@H]1C(=O)N[C@@H](CO)C(N)=O)[C@@H](C)O` [[PLA6, E9, E16]G(6-39)] (H-[PhLac]TSEYSKYLDERRAQDFVQWLMNTGPSSGAPPPS-NH2) showed an EC50 of 1760 nM. Moreover, the IC50 on Glucagon Receptor (setting [2]) came to 58.1 nM.

On to `CSCC[C@H](NC(=O)[C@H](CC(C)C)NC(=O)[C@H](Cc1c[nH]c2ccccc12)NC(=O)[C@H](CCC(N)=O)NC(=O)[C@@H](NC(=O)[C@H](Cc1ccccc1)NC(=O)[C@H](CC(=O)O)NC(=O)[C@@H]1CCCCNC(=O)CC[C@H](NC(=O)[C@H](CC(=O)O)NC(=O)[C@H](CC(C)C)NC(=O)[C@H](Cc2ccc(O)cc2)NC(=O)[C@H](CCCCN)NC(=O)[C@H](CO)NC(=O)[C@H](Cc2ccc(O)cc2)NC(=O)[C@H](CC(=O)O)NC(=O)[C@H](CO)NC(=O)[C@@H](NC(=O)[C@@H](O)Cc2ccccc2)[C@@H](C)O)C(=O)N[C@@H](CCCNC(=N)N)C(=O)N[C@@H](CCCNC(=N)N)C(=O)N[C@@H](C)C(=O)N1)C(C)C)C(=O)N[C@@H](CC(=O)O)C(=O)N[C@H](C(N)=O)[C@@H](C)O` [[PLA6, D9, E16K20(lactam), D28]G(6-29)] (H-[PhLac]TSDYSKYLDERRAKDFVQWLMDT-NH2; lactam 11-15), for which the EC50 on GLP-1 Receptor (GLP-1 EC50 (nM), Table 14) was 5 to 25 nM; on GLP-1 Receptor (setting [3]), 6.9 nM and 4.2 nM; at GLP-1 Receptor (GLP-1 agonism EC50 (nM), Table 19) it was 10.6 ± 0.97 nM; on GLP-1 Receptor (GLP-1 agonism EC50 (nM), Table 21), 5 to 28 nM. Also, the IC50 against Glucagon Receptor (Glucagon IC50 (nM), Table 14) was 10 to 30 nM; on Glucagon Receptor (Glucagon antagonism IC50(nM) (inhibit 0.2-0.8 nM glucagon), Table 21), 5 to 27 nM; against Glucagon Receptor (Glucagon antagonism IC50 (nM, inhibit 0.4 nM glucagon), Table 22), 5 to 27 nM; on Glucagon Receptor (Glucagon antagonism IC50 (nM, inhibit 0.8 nM glucagon), Table 19) it was 13.7 ± 1.2 nM; on Glucagon Receptor (setting [4]) it was 11.7 ± 2.8 nM; against Glucagon Receptor (Glucagon antagonism IC50 (nM, inhibit 0.2-0.8 nM glucagon), Table 18) it was 5.5 nM.

`CSCC[C@H](NC(=O)[C@H](CC(C)C)NC(=O)[C@H](Cc1c[nH]c2ccccc12)NC(=O)[C@H](CCC(N)=O)NC(=O)[C@@H](NC(=O)[C@H](Cc1ccccc1)NC(=O)[C@H](CC(=O)O)NC(=O)[C@H](CCC(N)=O)NC(=O)[C@H](C)NC(=O)[C@H](CCCNC(=N)N)NC(=O)[C@H](CCCNC(=N)N)NC(=O)[C@@H]1CCC(=O)NCCCC[C@H](NC(=O)[C@H](CO)NC(=O)[C@H](Cc2ccc(O)cc2)NC(=O)[C@H](CC(=O)O)NC(=O)[C@H](CO)NC(=O)[C@@H](NC(=O)[C@@H](O)Cc2ccccc2)[C@@H](C)O)C(=O)N[C@@H](Cc2ccc(O)cc2)C(=O)N[C@@H](CC(C)C)C(=O)N[C@@H](CC(=O)O)C(=O)N1)C(C)C)C(=O)N[C@@H](CC(=O)O)C(=O)N[C@H](C(N)=O)[C@@H](C)O` [[PLA6, D9, K12E16(Lactam), D28]G(6-29)] (H-[PhLac]TSDYSKYLDERRAQDFVQWLMDT-NH2; lactam 7-11): the EC50 at GLP-1 Receptor (setting [3]) came to 38.5 ± 7.6 nM. At Glucagon Receptor (setting [4]), this compound had an IC50 of 58.3 ± 3.3 nM.

As for `CSCC[C@H](NC(=O)[C@H](CC(C)C)NC(=O)[C@H](Cc1c[nH]c2ccccc12)NC(=O)[C@H](CCC(N)=O)NC(=O)[C@@H](NC(=O)[C@H](Cc1ccccc1)NC(=O)[C@H](CC(=O)O)NC(=O)[C@@H]1CCCCNC(=O)CC[C@H](NC(=O)[C@H](CC(=O)O)NC(=O)[C@H](CC(C)C)NC(=O)[C@H](Cc2ccc(O)cc2)NC(=O)[C@H](CCCCN)NC(=O)[C@H](CO)NC(=O)[C@H](Cc2ccc(O)cc2)NC(=O)[C@H](CC(=O)O)NC(=O)[C@H](CO)NC(=O)[C@@H](NC(=O)[C@H](Cc2ccccc2)OC(=O)[C@@H](NC(=O)CNC(=O)[C@H](CCC(=O)O)NC(=O)[C@H](C)N)[C@@H](C)O)[C@@H](C)O)C(=O)N[C@@H](CCCNC(=N)N)C(=O)N[C@@H](CCCNC(=N)N)C(=O)N[C@@H](C)C(=O)N1)C(C)C)C(=O)N[C@@H](CC(=O)O)C(=O)N[C@H](C(N)=O)[C@@H](C)O` [[A2E3-O-PLA6, D9, E16K20(Lactam), D28] G(2-29)] (H-AEGT[PhLac]TSDYSKYLDERRAKDFVQWLMDT-NH2; lactam 15-19; N-terminus assumed), the midpoint of the response at GLP-1 Receptor (GLP-1 agonism EC50 (nM), Table 24), the EC50, lay at 18 ± 2.14 nM.
